Test results taken from patent US11477982B2, “2-amino-5-oxyalkyl-pyrimidine derivatives and their use for controlling undesired plant growth” (Bayer CropScience Aktiengesellschaft, priority 2017, dated 2022).

What was measured:
Type in all cases: in vivo
[1] = test system: ALOMY: Alopecurus myosuroides; experiment: Pre-emergence herbicidal effect; conditions: pre-emergence; dosage 320 g/ha
From the text: (§1) 1. Pre-Emergence Herbicidal Effect and Crop Plant Compatibility
(§2) Seeds of monocotyledonous and dicotyledonous weed plants and crop plants are placed in plastic or wood fiber pots and covered with soil. The compounds of the invention, formulated in the form of wettable powders (WP) or as emulsion concentrates (EC), are then applied onto the surface of the covering soil as aqueous suspension or emulsion with addition of 0.5% additive at a water application rate of 600 l/ha (converted).
(§3) After the treatment, the pots are placed in a greenhouse and kept under good growth conditions for the trial plants. After about 3 weeks, the effect of the preparations is scored visually in comparison with untreated controls as percentages. For example, 100% activity=the plants have died, 0% activity=like control plants.

[2] = test system: PHBPU: Ipomoea purpurea; experiment: Pre-emergence herbicidal effect; conditions: dosage 320 g/ha
From the text: as §1, §2, §3

[3] = test system: POLCO: Polygonum convolvulus; experiment: Pre-emergence herbicidal effect; conditions: dosage 320 g/ha
From the text: as §1, §2, §3

[4] = test system: VERPE: Veronica persica; experiment: Pre-emergence herbicidal effect; conditions: dosage 320 g/ha
From the text: as §1, §2, §3

[5] = test system: SETVI: Setaria viridis; experiment: Pre-emergence herbicidal effect; conditions: pre-emergence; dosage 320 g/ha
From the text: as §1, §2, §3

[6] = test system: MATIN: Matricaria inodora; experiment: Pre-emergence herbicidal effect; conditions: pre-emergence; dosage 320 g/ha
From the text: as §1, §2, §3

[7] = test system: ABUTH: Abutilon theophrasti; experiment: Pre-emergence herbicidal effect; conditions: dosage 320 g/ha
From the text: as §1, §2, §3

[8] = test system: AMARE: Amaranthus retroflexus; experiment: Pre-emergence herbicidal effect; conditions: pre-emergence; dosage 320 g/ha
From the text: as §1, §2, §3

[9] = test system: HORMU: Hordeum murinum; experiment: Pre-emergence herbicidal effect; conditions: pre-emergence; dosage 320 g/ha
From the text: as §1, §2, §3

[10] = test system: VIOTR: Viola tricolor; experiment: Pre-emergence herbicidal effect; conditions: dosage 320 g/ha
From the text: as §1, §2, §3

[11] = test system: ECHCG: Echinochloa crus-galli; experiment: Pre-emergence herbicidal effect; conditions: pre-emergence; dosage 320 g/ha
From the text: as §1, §2, §3

[12] = test system: LOLRI: Lolium rigidum; experiment: Pre-emergence herbicidal effect; conditions: dosage 320 g/ha
From the text: as §1, §2, §3

[13] = test system: AVEFA: Avena fatua; experiment: Pre-emergence herbicidal effect; conditions: dosage 320 g/ha
From the text: as §1, §2, §3

[14] = test system: STEME: Stellaria media; experiment: Pre-emergence herbicidal effect; conditions: pre-emergence; dosage 320 g/ha
From the text: as §1, §2, §3

[15] = test system: ABUTH: Abutilon theophrasti; experiment: Post-emergence herbicidal effect; conditions: dosage 320 g/ha
Description: (§4) 2. Post-Emergence Herbicidal Effect and Crop Plant Compatibility
(§5) Seeds of monocotyledonous and dicotyledonous weeds and crop plants are placed in sandy loam in plastic or wood-fiber pots, covered with soil and cultivated in a greenhouse under controlled growth conditions, 2 to 3 weeks after sowing, the test plants are treated at the one-leaf stage. The compounds of the invention, formulated in the form of wettable powders (WP) or as emulsion concentrates (EC), are then sprayed onto the green parts of the plants as aqueous suspension or emulsion with addition of 0.5% additive at a water application rate of 600 l/ha (converted). After the test plants had been kept in the greenhouse under optimum growth conditions for about 3 weeks, the activity of the preparations is rated visually in comparison to untreated controls. For example, 100% activity=the plants have died, 0% activity=like control plants.

[16] = test system: AMARE: Amaranthus retroflexus; experiment: Post-emergence herbicidal effect; conditions: dosage 320 g/ha
Description: as §4, §5

[17] = test system: ECHCG: Echinochloa crus-galli; experiment: Post-emergence herbicidal effect; conditions: dosage 320 g/ha
Description: as §4, §5

[18] = test system: STEME: Stellaria media; experiment: Post-emergence herbicidal effect; conditions: dosage 320 g/ha
Description: as §4, §5

[19] = test system: VERPE: Veronica persica; experiment: Post-emergence herbicidal effect; conditions: dosage 320 g/ha
Description: as §4, §5

[20] = test system: SETVI: Setaria viridis; experiment: Post-emergence herbicidal effect; conditions: dosage 320 g/ha
Description: as §4, §5

[21] = test system: VIOTR: Viola tricolor; experiment: Post-emergence herbicidal effect; conditions: dosage 320 g/ha
Description: as §4, §5

Row | Structure (SMILES) | Herbicidal action against ALOMY [1] | Herbicidal action against PHBPU [2] | Herbicidal action against POLCO [3] | Herbicidal action against VERPE [4] | Herbicidal action against SETVI [5] | Herbicidal action against MATIN [6] | Herbicidal action against ABUTH [7] | Herbicidal action against AMARE [8] | Herbicidal action against HORMU [9] | Herbicidal action against VIOTR [10] | Herbicidal action against ECHCG [11] | Herbicidal action against LOLRI [12] | Herbicidal action against AVEFA [13] | Herbicidal action against STEME [14] | Herbicidal action against ABUTH [15] | Herbicidal action against AMARE [16] | Herbicidal action against ECHCG [17] | Herbicidal action against STEME [18] | Herbicidal action against VERPE [19] | Herbicidal action against SETVI [20] | further results
1 | Cc1nc(NC2c3ccccc3CC2C)ncc1C(C)(C)O (mixture of isomers) [Example 1.51] | 100% | 100% | 100% | 100% | 100% | 100% | 100% | 100% | 90% | 100% | 100% | 100% | 80% | 100% | – | – | – | – | – | – | –
2 | Cc1ccc2c(c1)[C@H](Nc1ncc(C(C)O)c(C)n1)CC2 (stereo partly shown) [Example 1.13] | 100% | 100% | 100% | 100% | 100% | 100% | 100% | 100% | 100% | 100% | 100% | 100% | 100% | 100% | 80% | 90% | 100% | 90% | – | – | –
3 | Cc1ccc2c(c1)[C@H](Nc1ncc(C(C)(C)O)c(C(F)F)n1)[C@@H](C)C2 [Example 1.17] | 100% | 80% | 100% | 100% | 100% | 100% | 100% | 100% | 100% | 100% | 100% | 100% | 100% | 100% | 90% | 80% | 80% | 100% | – | – | –
4 | Cc1ccc2c(c1)[C@H](Nc1ncc(C(C)(O)C3CC3)cn1)[C@@H](C)C2 (stereo partly shown) [Example 1.20] | 100% | 100% | 100% | 100% | 100% | 100% | 100% | 100% | 100% | 100% | 100% | 100% | 100% | 100% | 90% | 90% | 100% | 100% | – | – | –
5 | Cc1ccc2c(c1)[C@H](Nc1ncc(C(C)(C)O)c(C(C)F)n1)[C@@H](C)C2 (stereo partly shown) [Example 1.23] | 100% | 100% | 100% | 100% | 100% | 100% | 100% | 100% | 80% | 100% | 100% | 100% | 100% | 100% | – | – | – | – | – | – | –
6 | CC(C)(O)c1cnc(N[C@@H]2CCc3ccccc32)nc1 [Example 1.30] | – | – | 100% | 100% | – | 100% | – | 100% | – | 100% | – | – | – | – | 90% | 100% | 100% | 100% | 80% | 90% | Herbicidal action against VIOTR [21]: 90%
7 | Cc1ccc2c(c1)[C@H](Nc1ncc(C(C)(C)O)cn1)CCO2 [Example 1.38] | – | – | 100% | 100% | – | 100% | – | 100% | – | 100% | – | – | – | – | 90% | 100% | 100% | 100% | 90% | 90% | Herbicidal action against VIOTR [21]: 90%
8 | Cc1ccc2c(c1)[C@H](Nc1ncc(C(C)(C)O)c(C)n1)CCO2 [Example 1.53] | 100% | 100% | 100% | 100% | 100% | 100% | 100% | 100% | 100% | 100% | 100% | 90% | 100% | 100% | 90% | 90% | 100% | 90% | – | – | –
9 | CCC(O)(c1cnc(N[C@H]2c3cc(C)ccc3C[C@@H]2C)nc1)C(F)(F)F (stereo partly shown) [Example 1.58] | – | – | 100% | 100% | – | 100% | – | 100% | – | 100% | – | – | – | – | 90% | 90% | 100% | 90% | 90% | 90% | Herbicidal action against VIOTR [21]: 90%
10 | Cc1ccc2c(c1)[C@H](Nc1ncc(C(C)(O)C3(C)CC3)cn1)[C@@H](C)C2 (stereo partly shown) [Example 1.61] | 100% | 90% | 100% | 100% | 100% | 100% | 100% | 100% | 100% | 100% | 100% | 100% | 80% | 100% | 90% | 90% | 100% | 90% | – | – | –
